In article PMC11356900, “Synthesis, Structural Properties and Biological Activities of Novel Hydrazones of 2-, 3-, 4-Iodobenzoic Acid” (Molecules, 2024):
In brackets after ≈: the same amount, converted by molar mass. Where two headings read alike, the source gives them in different places.

Key:
[1] = test system: Gram-positive bacteria; assay: Broth microdilution, summary over reference Gram-positive bacteria; type: cell-based; conditions: for antibacterial activity in words: reference Gram-positive bacteria / studied bacteria
From the text: (§1) Procedures of in vitro antimicrobial assays are described in Supplementary Materials.
(§2) 2. Microbiology – in vitro antimicrobial activity assays […]
(§3) using the broth microdilution method according to the European Committee on Antimicrobial Susceptibility Testing (EUCAST) and Clinical and Laboratory Standards Institute guidelines against a panel of reference and clinical or saprophytic strains of mi croorganisms, including the Gram-positive bacteria: Staphylococcus aureus ATCC 43300 (Methi-cillin Resistant S. aureus – MRSA), Staphylococcus aureus ATCC 29213 (Methicillin Susceptible S. aureus – MSSA), Staph-ylococcus epidermidis ATCC 12228, Micrococcus luteus ATCC 10240, Bacillus subtilis ATCC 6633 and Bacillus cereus ATCC 10876), Gram-negative bacteria: Bordetella bronchiseptica ATCC 4617, Escherichia coli ATCC 25922, Klebsiella pneumoniae ATCC 13883, Proteus mirabilis ATCC 12453, Salmonella typhimurium ATCC 14028 and Pseudomonas aeruginosa ATCC 9027, and fungi belonging to yeasts: Candida albicans ATCC 10231, Candida albicans ATCC 2091, Candida parapsilosis ATCC 22019, Candida glabrata ATCC 90030 and Candida krusei ATCC 14243. The microorganisms belonging to ATCC originated from American Type Culture Collection, routinely used for the evaluation of antimicrobials. All the used microbial cultures were first subcultured on nutrient agar or Sabouraud agar at 35°C for 18-24 h or 30°C for 24-48 h for bacteria […]
(§4) The surface of Mueller-Hinton agar (for bacteria) and RPMI 1640 with MOPS (for fungi) were inoculated with the suspensions of bacterial or fungal species. Microbial suspensions were prepared in sterile saline with an optical density of McFarland standard scale 0.5. The samples containing the compounds were dissolved in dimethyl sulfoxide (DMSO).
(§5) Furthermore, the bacterial and fungal suspensions put onto the Petri dishes with solid media containing 2 mg/mL of the tested compounds followed were incubated at 37°C for 24h and 30°C for 48h for bacteria and fungi, respectively.
(§6) The inhibition of microbial growth was estimated comparing with a control culture prepared without any tested sam- […]
(§7) antifungal compounds, respectively.
(§8) Subsequently, MIC (Minimal Inhibitory Concentration) of the compounds was examined by the microdilution broth method, using their two-fold dilutions in Mueller-Hinton broth (for bacteria) and RPMI 1640 broth with MOPS (for fungi) prepared in the 96-well polystyrene plates. The final concentrations of the compounds ranged from 1000 to 0.488 µg/mL. Microbial suspensions were prepared in 0.85% NaCl with an optical density of 0.5 McFarland standard. Next each bacterial or fungal suspension was added per each well containing broth and various concentrations of the exam-ined compounds. After incubation, the MIC was assessed spectrophotometrically as the lowest concentration of the […]
(§9) Appropriate DMSO, growth and sterile controls were carried out. The medium with no tested substances was used as a control The MBC (Minimal Bactericidal Concentration) and MFC (Minimal Fungicidal Concentration) are defined as the lowest concentration of the compounds that is required to kill a particular bacterial or fungal species. The MBC/MFC was determined by removing the culture used for the MIC determination from each well and spotted onto the appro-priate agar medium. The plates were incubated under appropriate conditions for bacteria and fungi. The lowest com-pounds concentration with no visible growth observed was assessed as a bactericidal/fungicidal concentration. All the experiments were repeated three times and the representative data are presented.
(§10) 1. European Committee for Antimicrobial Susceptibility Testing (EUCAST) Determination of minimum inhibitory con-centrations (MICs) of antibacterial agents by broth dilution. EUCAST discussion document E. Dis 5.1. Clin. Microbiol.
(§11) 2. Clinical and Laboratory Standards Institute. Reference method for broth dilution antifungal susceptibility testing of […]

[2] = test system: Bordetella bronchiseptica ATCC 4617; assay: Broth microdilution MIC/MBC; conditions: ATCC4617
[3] = test system: Salmonella typhimurium ATCC 14028; assay: Broth microdilution MIC/MBC; conditions: Salmonella enterica
[4] = test system: Candida parapsilosis ATCC 22019; assay: Broth microdilution MIC/MFC; type: cell-based; conditions: Lodderomyces parapsilosis; for MIC: ATCC22019, read-out: MIC; for MFC: ATCC22019, read-out: MFC
From the text: as §1, §2, §3, §4, §5, §6, §7, §8, §9, §10, §11

[5] = test system: Candida albicans ATCC 10231; assay: Broth microdilution MIC/MFC; type: cell-based; conditions: for MIC: ATCC10231, read-out: MIC; for MFC: ATCC10231, read-out: MFC
From the text: as §1, §2, §3, §4, §5, §6, §7, §8, §9, §10, §11

[6] = test system: Candida albicans ATCC 2091; assay: Broth microdilution MIC/MFC; type: cell-based; conditions: for MIC: ATCC2091, read-out: MIC; for MFC: ATCC2091, read-out: MFC
From the text: as §1, §2, §3, §4, §5, §6, §7, §8, §9, §10, §11

[7] = test system: Candida krusei ATCC 14243; assay: Broth microdilution MIC/MFC; type: cell-based; conditions: Pichia kudriavzevii; for MIC: ATCC14243, read-out: MIC; for MFC: ATCC14243, read-out: MFC
From the text: as §1, §2, §3, §4, §5, §6, §7, §8, §9, §10, §11

[8] = test system: Candida glabrata ATCC 90030; assay: Broth microdilution MIC/MFC; type: cell-based; conditions: Nakaseomyces glabratus; for MIC: ATCC90030, read-out: MIC; for MFC: ATCC90030, read-out: MFC
From the text: as §1, §2, §3, §4, §5, §6, §7, §8, §9, §10, §11

[9] = test system: Pseudomonas aeruginosa ATCC 9027; assay: Broth microdilution MIC/MBC; conditions: ATCC9027
[10] = test system: Staphylococcus aureus ATCC 43300; assay: Broth microdilution MIC/MBC; conditions: ATCC43300 / MRSA
[11] = test system: Bacillus cereus ATCC 10876; assay: Broth microdilution MIC/MBC; conditions: Bacillus cereus, ATCC10876
[12] = test system: Proteus mirabilis ATCC 12453; assay: Broth microdilution MIC/MBC; conditions: ATCC12453
[13] = test system: Micrococcus luteus ATCC 10240; assay: Broth microdilution MIC/MBC; conditions: Micrococcus luteus, ATCC10240
[14] = test system: Staphylococcus epidermidis ATCC 12228; assay: Broth microdilution MIC/MBC; conditions: ATCC12228
[15] = test system: Bacillus subtilis ATCC 6633; assay: Broth microdilution MIC/MBC; conditions: ATCC6633
[16] = test system: Staphylococcus aureus ATCC 25923; assay: Broth microdilution MIC/MBC; conditions: Staphylococcus aureus, ATCC25923
[17] = test system: Klebsiella pneumoniae ATCC 13883; assay: Broth microdilution MIC/MBC; conditions: ATCC13883
[18] = test system: Staphylococcus aureus ATCC 29213; assay: Broth microdilution MIC/MBC; conditions: ATCC29213
[19] = test system: Escherichia coli ATCC 25922; assay: Broth microdilution MIC/MBC; conditions: ATCC25922
[20] = test system: Candida spp.; assay: Broth microdilution, summary over reference yeasts; type: cell-based
From the text: as §1, §2, §3, §4, §5, §6, §7, §8, §9, §10, §11

[21] = range over the reference Candida spp. strains

Row | SMILES | MIC [2] [µg/mL] | MIC [3] [µg/mL] | MIC [4] [µg/mL] | MIC [5] [µg/mL] | MIC [6] [µg/mL] | MIC [7] [µg/mL] | MIC [8] [µg/mL] | MIC [9] [µg/mL] | MIC [10] [µg/mL] | MIC [11] [µg/mL] | MIC [12] [µg/mL] | MBC [13] [µg/mL] | MIC [13] [µg/mL] | MIC [14] [µg/mL] | MIC [15] [µg/mL] | MIC [16] [µg/mL] | MIC [17] [µg/mL] | MIC [18] [µg/mL] | melting point [°C] | MIC [19] [µg/mL] | other results
1 | CCOc1cccc(/C=N/NC(=O)c2cccc(I)c2)c1O [Compound 18, N-[(3-ethoxy-2-hydroxyphenyl)methylidene]-3-iodobenzohydrazide] | > 1000 | > 1000 | > 1000 | > 1000 | > 1000 | > 1000 | > 1000 | > 1000 | > 1000 | > 1000 | > 1000 | 250 (≈ 609 µM) | 31.2 (≈ 76.2 µM) | 500 (≈ 1220 µM) | 62.5 (≈ 152 µM) | > 1000 | > 1000 | > 1000 | 115 to 121 | > 1000 | MIC [1]: 31.2 to 1000 µg/mL (≈ 76.2 to 2440 µM); MBC [14]: > 1000 µg/mL; MBC [15]: > 1000 µg/mL
2 | O=C(N/N=C/c1cc(O)ccc1O)c1cccc(I)c1 [Compound 19, N-[(2,5-dihydroxyphenyl)methylidene]-3-iodobenzohydrazide] | > 1000 | > 1000 | 125 (≈ 327 µM) | 250 (≈ 654 µM) | 500 (≈ 1310 µM) | 250 (≈ 654 µM) | 500 (≈ 1310 µM) | > 1000 | > 1000 | > 1000 | > 1000 | – | > 1000 | > 1000 | > 1000 | > 1000 | > 1000 | > 1000 | 220 to 224 | > 1000 | antibacterial activity in words [1]: no activity; MFC [4]: > 1000 µg/mL; MFC [5]: > 1000 µg/mL; MFC [6]: > 1000 µg/mL; MFC [7]: > 1000 µg/mL; MFC [8]: > 1000 µg/mL; MFC/MIC [20, 21]: > 4; MIC [20, 21]: 125 to 500 µg/mL (≈ 327 to 1310 µM); antifungal activity in words ([20]; reference yeasts from Candida spp.): good and moderate
3 | O=C(N/N=C/c1ccccc1O)c1ccc(I)cc1 [Compound 23, N-[(2-hydroxyphenyl)methylidene]-4-iodobenzohydrazide] | > 1000 | > 1000 | 1000 (≈ 2730 µM) | > 1000 | > 1000 | > 1000 | > 1000 | > 1000 | 500 (≈ 1370 µM) | 1000 (≈ 2730 µM) | > 1000 | > 1000 | 500 (≈ 1370 µM) | 1000 (≈ 2730 µM) | 1000 (≈ 2730 µM) | 1000 (≈ 2730 µM) | > 1000 | 500 (≈ 1370 µM) | 195 to 205 | > 1000 | MBC ([1]; range over the reference Gram-positive bacteria, read-out: MBC): > 1000 µg/mL; MIC ([1]; range over the reference Gram-positive bacteria, read-out: MIC): 500 to 1000 µg/mL (≈ 1370 to 2730 µM); antibacterial activity in words [1]: moderate or mild; MFC [4]: > 1000 µg/mL; MBC [10]: > 1000 µg/mL; MBC [11]: > 1000 µg/mL; MBC [14]: > 1000 µg/mL; MBC [15]: > 1000 µg/mL; MBC [16]: > 1000 µg/mL; MBC [18]: > 1000 µg/mL
4 | O=C(N/N=C/c1cc(O)ccc1O)c1ccc(I)cc1 [Compound 26, N-[(2,5-dihydroxyphenyl)methylidene]-4-iodobenzohydrazide] | > 1000 | > 1000 | 250 (≈ 654 µM) | 500 (≈ 1310 µM) | 1000 (≈ 2620 µM) | 500 (≈ 1310 µM) | 1000 (≈ 2620 µM) | > 1000 | 1000 (≈ 2620 µM) | > 1000 | > 1000 | > 1000 | 500 (≈ 1310 µM) | 1000 (≈ 2620 µM) | 500 (≈ 1310 µM) | > 1000 | > 1000 | > 1000 | 261 to 265 | > 1000 | MFC [4]: > 1000 µg/mL; MFC [5]: > 1000 µg/mL; MFC [6]: > 1000 µg/mL; MFC [7]: > 1000 µg/mL; MFC [8]: > 1000 µg/mL; MBC [10]: > 1000 µg/mL; MFC [20, 21]: > 1000 µg/mL; MIC [20, 21]: 250 to 1000 µg/mL (≈ 654 to 2620 µM); MBC [14]: > 1000 µg/mL; MBC [15]: > 1000 µg/mL
